Read-outs that look alike come from different tables or passages of the source.
What was measured:
[1] = system: acutely dissociated and purified rat OPCs; test: Acute OL differentiation assay (MBP expression/cell, immunofluorescent image quantification); format: cell-based; details: for activation at 0.4 µM / activation at 2 µM / activation at 10 µM / activation at 0.08 µM: sheet "All OLga data"
How it was run: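 This acute differentiation assay used purified rat OPCs from postnatal day 6–7 pups, seeded into PDL/laminin-coated 96-well plates in differentiation medium lacking PDGF and FGF. Compounds were applied in quadruplicate after a 1–2 h preincubation at 37 °C, 10 % CO2, with 0.1 % DMSO negative and 40 ng/ml T3 positive controls in eight wells. After fixation on DIV4, anti-MBP immunofluorescence images yielded MBP expression/cell.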

[2] = system: expanded OPCs; test: cells; details: for viability at 0.1 µM / viability at 1 µM / viability at 10 µM: Rattus norvegicus, 72 h
How it was run: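 Toxicity screen: compounds added at 0.1, 1 and 10 µM to PDGF-AA-expanded OPCs in 96-well plates, 3-day incubation at 37 °C, 10% CO2, then alamarBlue 1:10 for 4 h with fluorescence readout. Results set screening doses of 10/2, 2/0.4 or 0.4/0.08 µM.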

[3] = Rattus norvegicus, 0.4 uM test compound, relative to quetiapine, read-out: OL differentiation, 0.4 uM (% Quet)
[4] = Rattus norvegicus, 2 uM test compound, relative to quetiapine, read-out: OL differentiation, 2 uM (% Quet)
[5] = read-out: 0.1 µM (% DMSO), alamarBlue viability of expanded OPCs, compound at 0.1 µM, sheet All Tox data
[6] = read-out: 1 µM (% DMSO), alamarBlue viability of expanded OPCs, compound at 1 µM, sheet All Tox data
[7] = read-out: 10 µM (% DMSO), alamarBlue viability of expanded OPCs, compound at 10 µM, sheet All Tox data
[8] = Rattus norvegicus, test compound at 2 uM, NCC library screen, relative to quetiapine, read-out: 2 uM (% Quet)
[9] = Rattus norvegicus, test compound at 10 uM, NCC library screen, relative to quetiapine, read-out: 10 uM (% Quet)
[10] = read-out: 0.1 µM (% DMSO), alamarBlue viability, NCC library compound at 0.1 µM, sheet "All Tox data"
[11] = read-out: 1 µM (% DMSO), alamarBlue viability, NCC library compound at 1 µM, sheet "All Tox data"
[12] = read-out: 10 µM (% DMSO), alamarBlue viability, NCC library compound at 10 µM, sheet "All Tox data"
[13] = Rattus norvegicus, 10 uM test compound, relative to quetiapine, read-out: OL differentiation, 10 uM (% Quet)
[14] = Rattus norvegicus, test compound at 2 uM, MBP expression relative to quetiapine, NCC library screen, read-out: 2 uM (% Quet)
[15] = Rattus norvegicus, test compound at 10 uM, MBP expression relative to quetiapine, NCC library screen, read-out: 10 uM (% Quet)
[16] = alamarBlue viability of expanded OPCs, compound at 0.1 µM, relative to DMSO control
[17] = alamarBlue viability of expanded OPCs, compound at 1 µM, relative to DMSO control
[18] = alamarBlue viability of expanded OPCs, compound at 10 µM, relative to DMSO control

| SMILES | activation at 2 µM [1, 4] [%] | viability at 0.1 µM [2, 5] [%] | viability at 1 µM [2, 6] [%] | viability at 10 µM [2, 7] [%] | viability at 0.1 µM [2, 10] [%] | viability at 1 µM [2, 11] [%] | viability at 10 µM [2, 12] [%] | activation at 10 µM [1, 13] [%] | further results |
| --- | --- | --- | --- | --- | --- | --- | --- | --- | --- |
| COc1ccccc1N1CCN(CC(O)COc2cccc3ccccc23)CC1 (centres unmarked) [Naftopidil] | -49.3 | 96.2 | 87.5 | 26.4 |  |  |  |  | activation at 0.4 µM [1, 3]: -7.9% |
| CCCOc1ccc(C(=O)OCCN(CC)CC)cc1N [Proxymetacaine, reference compound] |  |  |  |  | 128 | 179 | 163 |  | activation at 2 µM [1, 8]: 75.8%; activation at 10 µM [1, 9]: 97.5%; EC50 ([1]; Rattus norvegicus, average EC50 for induction of OL differentiation from independent biological replicates, eight concentrations): 1 µM; hit in OL differentiation assay, MRF-TMC ([1]; ● = confirmed hit in this paper's assay): ● |
| Cc1cn([C@H]2C=C[C@@H](CO)O2)c(=O)[nH]c1=O [Stavudine] | -25.8 | 110 | 91.5 | 107 |  |  |  | -25 | activation at 2 µM [1, 14]: -21.6%; activation at 10 µM [1, 15]: -35.1%; 0.1 µM (% DMSO) [2, 16]: 90.1 % DMSO; 1 µM (% DMSO) [2, 17]: 97.1 % DMSO; 10 µM (% DMSO) [2, 18]: 101.2 % DMSO |
| COCc1c(C(C)C)nc(C(C)C)c(/C=C/[C@@H](O)C[C@@H](O)CC(=O)O)c1-c1ccc(F)cc1 [Cerivastatin] | -191 | 97.3 | 52.3 | 11.5 |  |  |  |  | activation at 0.4 µM [1, 3]: -38.8% |
| C[C@H]1C[C@@H]2[C@H]([C@@H](O)C[C@@]3(C)[C@H]2CC[C@]3(O)C(=O)CO)[C@@]2(C)C=CC(=O)C=C12 [Methylprednisolone] |  |  |  |  |  |  |  |  | activation at 2 µM [1, 14]: -2.6%; activation at 10 µM [1, 15]: -32.2%; 0.1 µM (% DMSO) [2, 16]: 115.7 % DMSO; 1 µM (% DMSO) [2, 17]: 111.5 % DMSO; 10 µM (% DMSO) [2, 18]: 102.3 % DMSO |
| CCOC(=O)[C@H](CCc1ccccc1)N[C@@H](C)C(=O)N1[C@H](C(=O)O)C[C@@H]2CCC[C@@H]21 [Ramipril] | -3.3 | 90.8 | 98.4 | 100 |  |  |  | -14.5 | activation at 2 µM [1, 14]: 2.5%; activation at 10 µM [1, 15]: -1.1%; 0.1 µM (% DMSO) ([2]; rat, 3 days, 0.1 µM): 92.1 % DMSO; 1 µM (% DMSO) ([2]; rat, 3 days, 1 µM): 96.0 % DMSO; 10 µM (% DMSO) ([2]; rat, 3 days, 10 µM): 96.0 % DMSO |
| CN1CCN(C2=Nc3ccccc3Oc3ccc(Cl)cc32)CC1 [Loxapine] | -18.5 | 85.7 | 71.4 | 29 |  |  |  |  | activation at 0.4 µM [1, 3]: -5.9% |
| COc1ccccc1OCC(O)COC(N)=O (centres unmarked) [Methocarbamol] |  |  |  |  |  |  |  |  | activation at 2 µM [1, 8]: 2.8%; activation at 10 µM [1, 9]: -3.7%; 0.1 µM (% DMSO) [2, 16]: 89.9 % DMSO; 1 µM (% DMSO) [2, 17]: 92.3 % DMSO; 10 µM (% DMSO) [2, 18]: 88.1 % DMSO |
| CCOC(=O)C1(c2ccccc2)CCN(CCC(C#N)(c2ccccc2)c2ccccc2)CC1 [Diphenoxylate] |  |  |  |  | 85.6 | 27.7 | 23.2 |  | activation at 0.08 µM ([1]; Rattus norvegicus, 0.08 uM test compound, relative to quetiapine, read-out: OL differentiation, 0.08 uM (% Quet)): -3.7%; activation at 0.4 µM [1, 3]: 12% |
| C=CCc1ccc(O)c(-c2ccc(O)c(CC=C)c2)c1 [Honokiol] |  | 95.4 | 78.2 | 11.4 |  |  |  |  | activation at 0.4 µM [1, 3]: 9.1% |
| COC1=CC(=O)C[C@@H](C)[C@]12Oc1c(Cl)c(OC)cc(OC)c1C2=O [Griseofulvin] |  |  |  |  |  |  |  |  | activation at 2 µM [1, 14]: -7.2%; activation at 10 µM [1, 15]: -53.4%; 0.1 µM (% DMSO) [2, 16]: 95.9 % DMSO; 1 µM (% DMSO) [2, 17]: 93.1 % DMSO; 10 µM (% DMSO) [2, 18]: 66.2 % DMSO |
| CC[C@@H]1C(=O)OC[C@@H]1Cc1cncn1C [Pilocarpine] | 0.3 | 90.2 | 101 | 90.1 |  |  |  | 6.6 |  |
| COc1ccc(C(=O)NCc2ccc(OCCN(C)C)cc2)cc1OC [Itopride] | -2.3 |  |  |  | 112 | 97.5 | 87.1 | 2 |  |
| CNCCC=C1c2ccccc2CCc2ccccc21 [Nortriptyline] |  |  |  |  |  |  |  |  | activation at 0.08 µM ([1]; Rattus norvegicus, test compound at 0.08 uM, NCC library screen, relative to quetiapine, read-out: 0.08 uM (% Quet)): 2.3%; activation at 0.4 µM ([1]; Rattus norvegicus, test compound at 0.4 uM, NCC library screen, relative to quetiapine, read-out: 0.4 uM (% Quet)): -28.1%; 0.1 µM (% DMSO) [2, 16]: 66.6 % DMSO; 1 µM (% DMSO) [2, 17]: 28.2 % DMSO; 10 µM (% DMSO) [2, 18]: 13.8 % DMSO |
| CN(C)[C@@H]1C(O)=C(C(N)=O)C(=O)[C@@]2(O)C(O)=C3C(=O)c4c(O)ccc(Cl)c4[C@@H](O)[C@H]3C[C@@H]12 [Demeclocycline] |  |  |  |  | 96.3 | 90.6 | 88.4 |  | activation at 2 µM [1, 8]: -7.5%; activation at 10 µM [1, 9]: -21% |
| O=C(CCNNC(=O)c1ccncc1)NCc1ccccc1 [Nialamide] |  |  |  |  | 95 | 96.2 | 91.7 |  | activation at 2 µM [1, 8]: 2.8%; activation at 10 µM [1, 9]: 14.8% |
| CC[C@H]1OC(=O)[C@H](C)C(=O)[C@H](C)[C@@H](O[C@@H]2O[C@H](C)C[C@H](N(C)C)[C@H]2O)[C@](C)(OC)C[C@@H](C)C(=O)[C@H](C)[C@H]2N(CCCCn3cnc(-c4cccnc4)c3)C(=O)O[C@]12C [Telithromycin] |  |  |  |  | 98.4 | 105 | 94 |  | activation at 2 µM [1, 8]: 17.7%; activation at 10 µM [1, 9]: 10.4% |
| NC(=O)OCC(COC(N)=O)c1ccccc1 [Felbamate] | -1.8 |  |  |  | 92.3 | 95.5 | 91.9 | -7.9 |  |
| Cc1ncc([N+](=O)[O-])n1CC(O)CCl (centres unmarked) [Ornidazole] | 4.7 |  |  |  | 106 | 91.3 | 82.2 | 13 |  |
| COc1cc(C)c(Cc2cnc(N)nc2N)cc1OC [Ormetoprim] | -23.4 | 101 | 91 | 95.4 |  |  |  | -8.2 |  |
| CCc1ccc(CCOc2ccc(CC3SC(=O)NC3=O)cc2)nc1 (centres unmarked) [Pioglitazone] | 13.3 | 96.9 | 120 | 164 |  |  |  | 55.6 |  |

Reference: PMC5011342, “A high throughput drug screening assay to identify compounds that promote oligodendrocyte differentiation using acutely dissociated and purified oligodendrocyte precursor cells” (BMC Research Notes, 2016)
